# According to patent publication US20170348258A1, “3-Amino Benzamide Derivative Serving As B-Lactam Auxiliary Antibiotic, Preparation Method and Use Thereof” (THE HONG KONG POLYTECHNIC UNIVERSITY, priority 2014, published 2017):
# Assays:
# in vivo = details: male, Sprague-Dawley, rat
# Experimental: Compound F332 was further subjected to in vivo pharmacokinetic study. The UPLC-MS/MS system consists of an Acquity Waters UPLC interfaced with triple quadrupole mass spectrometer (Micromass model Quattro Ultima) equipped with an electrospray ionization source in positive mode. Chromatographic separation was done on ACQUITY UPLC BEH C18 […] (2.1×50 mm) column. The mobile phase consists of methanol+0.1% formic acid (solvent B) and Milli-Q water+0.1% formic acid (solvent A). Multiple reaction monitoring (MRM) was set monitoring the transitions for F332 [M+H]^+ at 299>142 m/z. The collision energy, cone voltage, source temperature, desolvation temperature and capillary voltage are 25, 30, 150° C., 350° C. and 3 Kv, respectively. The cone gas and desolvation gas was 150 L/Hr and 600 L/Hr, respectively.
# Male Sprague-Dawley (SD) rats (body weight 250-280 g) were obtained from Centralised Animal Facilities, The Hong Kong Polytechnic University. Animals were kept in a temperature and humidity controlled environment with 12 hour light-dark cycle with standard diet and water. Animal experiment protocol was approved by the Animal Subjects Ethics Sub-Committee of The Hong Kong Polytechnic University. Right jugular vein cannulation was done one day in advance of the experiment. Animal were fasted overnight and had free access to water throughout the experiment. F332 was freshly prepared in 5% CremophorEL, 5% ethanol, 90% saline at a concentration of 2 mg/ml. F332 was prepared on the day of use and used for animal study within half an hour. In the current study, F332 was administered through passive oral feeding (oral) and intravenous (IV) injection. Blood samples (approx. 500 μL) were collected in heparinzied tubes (20 units of heparin salt/tube) via jugular vein at 5, 10, 30, 45, 60, 120, 240 and 420 minutes post administration for IV study. As for oral study, plasma samples were collected at 2, 10, 30, 45, 60, 120, 240, 480 and 600 minutes. Blood plasma samples were collected by centrifuged at 16,100 G for 10 minutes. For all blood plasma samples, 3 fold volume of methanol was added for protein precipitation. Supernatant was filtered by a syringe filter before UPLC-MS/MS analysis. Pharmacokinetic parameters in plasma were determined by non-compartmental pharmacokinetics data analysis using Pharmacokinetics Solutions 2.0 software (Summit Research Services, Montrose, Colo., USA). The pharmacokinetic parameters determined include maximal plasma concentration (Cmax), time to reach maximal plasma concentration (Tmax), mean residence time (MRT), absorption/distribution half life (t1/2α), elimination half life (t1/2β), volume of distribution (Vd), systemic clearance (CL) and the area under the concentration-time curve (AUC).
# MRSA strain 2490 = test: FICI of F332 with antibiotics; format: cell-based, S. aureus
# MRSA strain 231 = test: FICI of F332 with antibiotics; format: cell-based, S. aureus
# MRSA strain 2901 = test: FICI of F332 with antibiotics; format: cell-based, S. aureus
# MRSA strain 256 = test: FICI of F332 with antibiotics; format: cell-based, S. aureus
# MRSA strain 3332 = test: FICI of F332 with antibiotics; format: cell-based, S. aureus
# MRSA strain 3411 = test: FICI of F332 with antibiotics; format: cell-based, S. aureus
# [1] = system: MRSA strain #1749 (ATCC strain); test: FICI of F332 with antibiotics; format: cell-based, S. aureus
# MRSA strain 2728 = test: FICI of F332 with antibiotics; format: cell-based, S. aureus
# [2] = system: MRSA strain #1717 (ATCC strain); test: FICI of F332 with antibiotics; format: cell-based, S. aureus
# MRSA strain 3580 = test: FICI of F332 with antibiotics; format: cell-based, S. aureus
# MRSA strain 85 = test: FICI of F332 with antibiotics; format: cell-based, S. aureus
# MRSA strain 1449 = test: FICI of F332 with antibiotics; format: cell-based, S. aureus
smiles,measurement,setting,value
"CCCCCCCCCNc1ccc(F)c(C(N)=O)c1F [Compound F332, 2,6-difluoro-3-(nonylamino)benzamide]",AUC,"in vivo; iv, 1 mg/kg",1740 ng·h/mL
same,AUC(0-t),"in vivo; iv, 1 mg/kg",699 ng·h/mL
same,MRT,"in vivo; iv, 1 mg/kg",8.08 h
same,Vd,"in vivo; iv, 1 mg/kg",4.81 L/kg
same,clearance,"in vivo; iv, 1 mg/kg",10 mL/min/kg
same,half-life,"in vivo; iv, 1 mg/kg, Absorption/distribution half life",0.25 h
same,half-life,"in vivo; iv, 1 mg/kg, Elimination half life",5.82 h
same,AUC,"in vivo; po, 50 mg/kg",10400 ng·h/mL
same,AUC(0-t),"in vivo; po, 50 mg/kg",8980 ng·h/mL
same,CL (area)/kg,"in vivo; po, 50 mg/kg",80 mL/min/kg
same,Cmax,"in vivo; po, 50 mg/kg",1920 ng/mL
same,MRT,"in vivo; po, 50 mg/kg",4.82 h
same,Tmax,"in vivo; po, 50 mg/kg",2 h
same,Vd (area)/kg,"in vivo; po, 50 mg/kg",20.916 L/kg
same,half-life,"in vivo; po, 50 mg/kg",3 h
same,half-life,"in vivo; po, 50 mg/kg, Absorption/distribution half life",0.35 h
same,bioavailability,"in vivo; po, 50 mg/kg, Bioavailability",~12%
same,FICI of F332 combined with Amoxicillin,MRSA strain 2490,0.56
same,FICI of F332 combined with Cefuroxime,MRSA strain 2490,0.19
same,FICI of F332 combined with Cloxacillin,MRSA strain 2490,0.56
same,FICI of F332 combined with Meropenem,MRSA strain 2490,2.25
same,FICI of F332 combined with Meticillin,MRSA strain 2490,0.25
same,FICI of F332 combined with Amoxicillin,MRSA strain 231,0.52
same,FICI of F332 combined with Cefuroxime,MRSA strain 231,0.50
same,FICI of F332 combined with Cloxacillin,MRSA strain 231,0.28
same,FICI of F332 combined with Meropenem,MRSA strain 231,0.63
same,FICI of F332 combined with Meticillin,MRSA strain 231,0.50
same,FICI of F332 combined with Amoxicillin,MRSA strain 2901,0.06
same,FICI of F332 combined with Cefuroxime,MRSA strain 2901,0.13
same,FICI of F332 combined with Cloxacillin,MRSA strain 2901,0.25
same,FICI of F332 combined with Meropenem,MRSA strain 2901,4.01
same,FICI of F332 combined with Meticillin,MRSA strain 2901,0.01
same,FICI of F332 combined with Amoxicillin,MRSA strain 256,0.08
same,FICI of F332 combined with Cefuroxime,MRSA strain 256,0.01
same,FICI of F332 combined with Cloxacillin,MRSA strain 256,0.13
same,FICI of F332 combined with Meropenem,MRSA strain 256,4.01
same,FICI of F332 combined with Meticillin,MRSA strain 256,0.04
same,FICI of F332 combined with Amoxicillin,MRSA strain 3332,0.63
same,FICI of F332 combined with Cefuroxime,MRSA strain 3332,0.13
same,FICI of F332 combined with Cloxacillin,MRSA strain 3332,0.38
same,FICI of F332 combined with Meropenem,MRSA strain 3332,2.25
same,FICI of F332 combined with Meticillin,MRSA strain 3332,0.28
same,FICI of F332 combined with Amoxicillin,MRSA strain 3411,2.02
same,FICI of F332 combined with Cefuroxime,MRSA strain 3411,1.00
same,FICI of F332 combined with Cloxacillin,MRSA strain 3411,0.53
same,FICI of F332 combined with Meropenem,MRSA strain 3411,3.00
same,FICI of F332 combined with Meticillin,MRSA strain 3411,1.02
same,FICI of F332 combined with Amoxicillin,[1],1.03
same,FICI of F332 combined with Cefuroxime,[1],1.13
same,FICI of F332 combined with Cloxacillin,[1],1.25
same,FICI of F332 combined with Meropenem,[1],10.0
same,FICI of F332 combined with Meticillin,[1],1.06
same,FICI of F332 combined with Amoxicillin,MRSA strain 2728,0.08
same,FICI of F332 combined with Cefuroxime,MRSA strain 2728,0.14
same,FICI of F332 combined with Cloxacillin,MRSA strain 2728,1.01
same,FICI of F332 combined with Meropenem,MRSA strain 2728,2.03
same,FICI of F332 combined with Meticillin,MRSA strain 2728,0.16
same,FICI of F332 combined with Amoxicillin,[2],1.06
same,FICI of F332 combined with Cefuroxime,[2],1.13
same,FICI of F332 combined with Cloxacillin,[2],2.50
same,FICI of F332 combined with Meropenem,[2],3.00
same,FICI of F332 combined with Meticillin,[2],1.13
same,FICI of F332 combined with Amoxicillin,MRSA strain 3580,0.28
same,FICI of F332 combined with Cefuroxime,MRSA strain 3580,0.06
same,FICI of F332 combined with Cloxacillin,MRSA strain 3580,0.53
same,FICI of F332 combined with Meropenem,MRSA strain 3580,1.25
same,FICI of F332 combined with Meticillin,MRSA strain 3580,0.19
same,FICI of F332 combined with Amoxicillin,MRSA strain 85,0.04
same,FICI of F332 combined with Cefuroxime,MRSA strain 85,0.25
same,FICI of F332 combined with Cloxacillin,MRSA strain 85,1.00
same,FICI of F332 combined with Meropenem,MRSA strain 85,4.01
same,FICI of F332 combined with Meticillin,MRSA strain 85,0.50
same,FICI of F332 combined with Amoxicillin,MRSA strain 1449,0.38
same,FICI of F332 combined with Cefuroxime,MRSA strain 1449,1.50
same,FICI of F332 combined with Cloxacillin,MRSA strain 1449,0.63
same,FICI of F332 combined with Meropenem,MRSA strain 1449,33.0
same,FICI of F332 combined with Meticillin,MRSA strain 1449,0.75
